Measurements as given in patent publication US20060264414A1, “Fluorous 2,2'-bipyridines and fluorinated biphasic sysems for ligand design” (The Board of Regents, University and Community College …, priority 2005, published 2006).
Where two headings read alike, the source gives them in different places. Marks after values point to notes of the source that are not given here.

How the values were obtained:
[1] = Fluorous partition coefficient, CF3C6F11/toluene, GLC method; assay type: physicochemical; details: 1:1 v/v perfluoromethylcyclohexane and toluene
Excerpt: Fluorous partition coefficients (FPCs) were obtained for 1-4 for a 1:1 v/v biphasic mixture of “fluorous” solvent perfluoromethylcyclohexane, CF3C6F11 and toluene.

[2] = value from ref. 13; cited from earlier work
[3] = Cyclic voltammetry reduction potentials; assay type: physicochemical; details: THF; for ΔEp: scan rate 10 V/sec, TBAPF6; for E1/2: vs. SCE, 10 μm Pt ultramicroelectrode
Excerpt: THF was found suitable for this study as 1-3 have sufficient solubility and the electrochemical potential window (+1.2 V to −3 V vs. SCE) extends to the potential range of interest.

[4] = in DMF, known values; cited from earlier work
[5] = tested on: Breast Cancer Cells (DC4 and DB-46); experiment: Survival studies (Clonogenic Assay); assay type: cell-based; details: 10 micromolar Pt agent, DC4 and DB-46 cells
Excerpt: Plots are appended to this document that provide viable cells vs. concentration of Pt agent.

| Compound | FPC = Cbpy(CF3C6F11)/Cbpy(toluene) [1] | ΔEp [3] [mV] | E1/2 [3] [V] | reduction potential [4] [V] | further results |
| --- | --- | --- | --- | --- | --- |
| FC(F)(F)C(F)(F)C(F)(F)C(F)(F)C(F)(F)C(F)(F)C(F)(F)C(F)(F)C(F)(F)C(F)(F)CCCc1ccnc(-c2cc(CCCC(F)(F)C(F)(F)C(F)(F)C(F)(F)C(F)(F)C(F)(F)C(F)(F)C(F)(F)C(F)(F)C(F)(F)F)ccn2)c1 [Ligand 4] | 11 | – | – | – | fi = fluorophilicity = ln[FPC] [1]: +2.4 |
| FC(F)(F)C(F)(F)C(F)(F)C(F)(F)C(F)(F)C(F)(F)C(F)(F)C(F)(F)CCCCc1ccnc(-c2cc(CCCCC(F)(F)C(F)(F)C(F)(F)C(F)(F)C(F)(F)C(F)(F)C(F)(F)C(F)(F)F)ccn2)c1 [—(CH2)4Rf8, 4,4′-di-[(CH2)4(CF2)7CF3]-2,2′-bipyridine] | – | – | – | – | FPC = Cbpy(CF3C6F11)/Cbpy(toluene) [2]: 0.67^c; fi = fluorophilicity = ln[FPC] [2]: −0.40^c |
| Cc1ccnc(-c2cc(C)ccn2)c1 [—CH3, 4,4′-dimethyl-2,2′-bipyridine] | no compound in the CF3C6F11 layer | 253 | −2.493 | −2.68 | – |
| CCCCCCCCCc1ccnc(-c2cc(CCCCCCCCC)ccn2)c1 [—(CH2)8CH3] | no compound in the CF3C6F11 layer | 299 | −2.501 | – | – |
| c1ccc(-c2ccccn2)nc1 [—H, 2,2′-bipyridine] | – | – | – | −2.60 | – |
| [4,4′-Bis(4,4,4-trifluorobutyl)-2,2′-bipyridine]PtCl2 [Complex 1] | – | – | – | – | colonies surviving / survival [5]: around 2% |
